In PubChem BioAssay (NCI):
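Tested at 5 concentrations; 48 h exposure; 96-well plates; endpoints linearly interpolated, else capped at highest concentration. Here, GI50 denotes the concentration required for 50% inhibition of growth. TGI: concentration producing complete growth inhibition.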

How the values were obtained:
Assay in all cases: NCI-60 cell line screen, 48 h; in the data active = GI50 below about 0.43 µM; inactive = the rest
[1] = tested on: 786-0 renal
[2] = tested on: A498 renal
[3] = tested on: A549 NSCLC
[4] = tested on: ACHN renal
[5] = tested on: BT-549 breast
[6] = tested on: CAKI-1 renal
[7] = tested on: CCRF-CEM leukemia
[8] = tested on: COLO 205 colon
[9] = tested on: DU-145 prostate
[10] = tested on: EKVX NSCLC
[11] = tested on: HCC-2998 colon
[12] = tested on: HCT-116 colon
[13] = tested on: HCT-15 colon
[14] = tested on: HL-60(TB) leukemia
[15] = tested on: HOP-62 NSCLC
[16] = tested on: HOP-92 NSCLC
[17] = tested on: HS 578T breast
[18] = tested on: HT29 colon
[19] = tested on: IGROV1 ovarian
[20] = tested on: K-562 leukemia
[21] = tested on: KM12 colon
[22] = tested on: LOX IMVI melanoma
[23] = tested on: M14 melanoma
[24] = tested on: MALME-3M melanoma
[25] = tested on: MCF7 breast
[26] = tested on: MDA-MB-231 breast
[27] = tested on: MDA-MB-435
[28] = tested on: MOLT-4 leukemia
[29] = tested on: NCI-H226 lung
[30] = tested on: NCI-H23 lung
[31] = tested on: NCI-H460 lung
[32] = tested on: NCI-H522 lung
[33] = tested on: NCI/ADR-RES ovarian
[34] = tested on: OVCAR-3 ovarian
[35] = tested on: OVCAR-4 ovarian
[36] = tested on: OVCAR-5 ovarian
[37] = tested on: OVCAR-8 ovarian
[38] = tested on: PC-3 prostate
[39] = tested on: RPMI-8226 leukemia
[40] = tested on: RXF 393 renal
[41] = tested on: SF-268 CNS
[42] = tested on: SF-295 CNS
[43] = tested on: SF-539 CNS
[44] = tested on: SK-MEL-2 melanoma
[45] = tested on: SK-MEL-28 melanoma
[46] = tested on: SK-MEL-5 melanoma
[47] = tested on: SK-OV-3 ovarian
[48] = tested on: SN12C renal
[49] = tested on: SNB-19 CNS
[50] = tested on: SNB-75 CNS
[51] = tested on: SW-620 colon
[52] = tested on: T-47D breast
[53] = tested on: TK-10 renal
[54] = tested on: U251 CNS
[55] = tested on: UACC-257 melanoma
[56] = tested on: UACC-62 melanoma
[57] = tested on: UO-31 renal

O=C(CSCC(=O)N/N=C/c1cccc(OCc2ccccc2)c1)N/N=C/c1cccc(OCc2ccccc2)c1
inactive: GI50 [8] 37.5 µM
> 100 µM: TGI [1] | TGI [3] | TGI [4] | TGI [5] | TGI [6] | TGI [7] | TGI [8] | TGI [9] | TGI [10] | TGI [11] | TGI [12] | TGI [13] | TGI [15] | TGI [17] | TGI [18] | TGI [19] | TGI [20] | TGI [21] | TGI [22] | TGI [23] | TGI [24] | TGI [25] | TGI [26] | TGI [27] | TGI [29] | TGI [30] | TGI [31] | TGI [32] | TGI [33] | TGI [34] | TGI [35] | TGI [36] | TGI [37] | TGI [40] | TGI [41] | TGI [42] | TGI [43] | TGI [44] | TGI [45] | TGI [47] | TGI [49] | TGI [50] | TGI [51] | TGI [52] | TGI [53] | TGI [54] | TGI [56] | TGI [57]
> 74 µM: TGI [48]
> 69.7 µM: TGI [2]
97.8 µM: TGI [38]
46.4 µM: TGI [28]
53.3 µM: TGI [14]
97.2 µM: TGI [16]
> 92.8 µM: TGI [46]
39.9 µM: TGI [39]
> 85.1 µM: TGI [55]
